According to patent US4032625A, “Bone-seeking technetium-99m complex” (priority 1975, dated 1977):
Like-named read-outs stand apart in the source and are kept apart here.

Settings: 2 Hrs

99m technetium-tin-1-amino-ethane-1,1-diphosphonate complex [^99m Tc-Sn-AEDP]
Ratio of 99mTc complex/85Sr: Ave Bone (0.01 mg/kg): 0.735
Ratio of 99mTc complex/85Sr: Blood (0.01 mg/kg): 0.406
Ratio of 99mTc complex/85Sr: Femur (0.01 mg/kg): 0.720
Ratio of 99mTc complex/85Sr: Kidneys (0.01 mg/kg): 4.99
Ratio of 99mTc complex/85Sr: Liver (0.01 mg/kg): 3.00
Ratio of 99mTc complex/85Sr: Marrow (0.01 mg/kg): 1.27
Ratio of 99mTc complex/85Sr: Muscle (0.01 mg/kg): 0.338
Ratio of 99mTc complex/85Sr: Pelvis (0.01 mg/kg): 0.794
Ratio of 99mTc complex/85Sr: Spine (0.01 mg/kg): 0.689
Ratio of 99mTc complex/85Sr: Tibia (0.01 mg/kg): 0.710
Tc/Sr (last line of distribution table) (0.01 mg/kg): 0.736
% Dose in Whole Organ: Blood (0.01 mg/kg AEDP): 1.18 % Dose
% Dose in Whole Organ: Kidneys (0.01 mg/kg AEDP): 1.59 % Dose
% Dose in Whole Organ: Liver (0.01 mg/kg AEDP): 1.69 % Dose
% Dose in Whole Organ: Marrow (0.01 mg/kg AEDP): 0.657 % Dose
% Dose in Whole Organ: Muscle (0.01 mg/kg AEDP): 0.988 % Dose
% Dose in Whole Organ: W. Femur (0.01 mg/kg AEDP): 2.34 % Dose
% Dose in Whole Organ: W. Tibia (0.01 mg/kg AEDP): 1.96 % Dose
% Dose/1% Body weight: Blood (0.01 mg/kg AEDP): 0.168 % Dose/1% Body weight
% Dose/1% Body weight: Bone Ave (0.01 mg/kg AEDP): 7.60 % Dose/1% Body weight
% Dose/1% Body weight: Femur (0.01 mg/kg AEDP): 7.54 % Dose/1% Body weight
% Dose/1% Body weight: Kidneys (0.01 mg/kg AEDP): 2.72 % Dose/1% Body weight
% Dose/1% Body weight: Liver (0.01 mg/kg AEDP): 0.617 % Dose/1% Body weight
% Dose/1% Body weight: Marrow (0.01 mg/kg AEDP): 0.300 % Dose/1% Body weight
% Dose/1% Body weight: Muscle (0.01 mg/kg AEDP): 0.037 % Dose/1% Body weight
% Dose/1% Body weight: Pelvis (0.01 mg/kg AEDP): 8.53 % Dose/1% Body weight
% Dose/1% Body weight: Spine (0.01 mg/kg AEDP): 6.20 % Dose/1% Body weight
% Dose/1% Body weight: Tibia (0.01 mg/kg AEDP): 8.13 % Dose/1% Body weight
% Dose: Urine (0.01 mg/kg AEDP): 48.39 % Dose
Ratio of 99mTc complex/85Sr: Ave Bone (0.05 mg/kg): 0.683
Ratio of 99mTc complex/85Sr: Blood (0.05 mg/kg): 0.409
Ratio of 99mTc complex/85Sr: Femur (0.05 mg/kg): 0.687
Ratio of 99mTc complex/85Sr: Kidneys (0.05 mg/kg): 3.30
Ratio of 99mTc complex/85Sr: Liver (0.05 mg/kg): 1.32
Ratio of 99mTc complex/85Sr: Marrow (0.05 mg/kg): 1.18
Ratio of 99mTc complex/85Sr: Muscle (0.05 mg/kg): 0.236
Ratio of 99mTc complex/85Sr: Pelvis (0.05 mg/kg): 0.684
Ratio of 99mTc complex/85Sr: Spine (0.05 mg/kg): 0.675
Ratio of 99mTc complex/85Sr: Tibia (0.05 mg/kg): 0.681
Tc/Sr (last line of distribution table) (0.05 mg/kg): 0.680
% Dose in Whole Organ: Blood (0.05 mg/kg AEDP): 1.01 % Dose
% Dose in Whole Organ: Kidneys (0.05 mg/kg AEDP): 1.13 % Dose
% Dose in Whole Organ: Liver (0.05 mg/kg AEDP): 0.806 % Dose
% Dose in Whole Organ: Marrow (0.05 mg/kg AEDP): 0.549 % Dose
% Dose in Whole Organ: Muscle (0.05 mg/kg AEDP): 1.20 % Dose
% Dose in Whole Organ: W. Femur (0.05 mg/kg AEDP): 2.41 % Dose
% Dose in Whole Organ: W. Tibia (0.05 mg/kg AEDP): 2.14 % Dose
% Dose/1% Body weight: Blood (0.05 mg/kg AEDP): 0.144 % Dose/1% Body weight
% Dose/1% Body weight: Bone Ave (0.05 mg/kg AEDP): 8.39 % Dose/1% Body weight
% Dose/1% Body weight: Femur (0.05 mg/kg AEDP): 8.63 % Dose/1% Body weight
% Dose/1% Body weight: Kidneys (0.05 mg/kg AEDP): 1.83 % Dose/1% Body weight
% Dose/1% Body weight: Liver (0.05 mg/kg AEDP): 0.176 % Dose/1% Body weight
% Dose/1% Body weight: Marrow (0.05 mg/kg AEDP): 0.250 % Dose/1% Body weight
% Dose/1% Body weight: Muscle (0.05 mg/kg AEDP): 0.028 % Dose/1% Body weight
% Dose/1% Body weight: Pelvis (0.05 mg/kg AEDP): 7.82 % Dose/1% Body weight
% Dose/1% Body weight: Spine (0.05 mg/kg AEDP): 7.80 % Dose/1% Body weight
% Dose/1% Body weight: Tibia (0.05 mg/kg AEDP): 9.30 % Dose/1% Body weight
% Dose: Urine (0.05 mg/kg AEDP): 44.21 % Dose
Ratio of 99mTc complex/85Sr: Ave Bone (0.1 mg/kg): 0.716
Ratio of 99mTc complex/85Sr: Blood (0.1 mg/kg): 0.409
Ratio of 99mTc complex/85Sr: Femur (0.1 mg/kg): 0.714
Ratio of 99mTc complex/85Sr: Kidneys (0.1 mg/kg): 2.94
Ratio of 99mTc complex/85Sr: Liver (0.1 mg/kg): 0.490
Ratio of 99mTc complex/85Sr: Marrow (0.1 mg/kg): 0.621
Ratio of 99mTc complex/85Sr: Muscle (0.1 mg/kg): 0.205
Ratio of 99mTc complex/85Sr: Pelvis (0.1 mg/kg): 0.725
Ratio of 99mTc complex/85Sr: Spine (0.1 mg/kg): 0.705
Ratio of 99mTc complex/85Sr: Tibia (0.1 mg/kg): 0.721
Tc/Sr (last line of distribution table) (0.1 mg/kg): 0.717
% Dose in Whole Organ: Blood (0.1 mg/kg AEDP): 0.96 % Dose
% Dose in Whole Organ: Kidneys (0.1 mg/kg AEDP): 0.913 % Dose
% Dose in Whole Organ: Liver (0.1 mg/kg AEDP): 0.309 % Dose
% Dose in Whole Organ: Marrow (0.1 mg/kg AEDP): 0.211 % Dose
% Dose in Whole Organ: Muscle (0.1 mg/kg AEDP): 1.46 % Dose
% Dose in Whole Organ: W. Femur (0.1 mg/kg AEDP): 2.38 % Dose
% Dose in Whole Organ: W. Tibia (0.1 mg/kg AEDP): 2.18 % Dose
% Dose/1% Body weight: Blood (0.1 mg/kg AEDP): 0.137 % Dose/1% Body weight
% Dose/1% Body weight: Bone Ave (0.1 mg/kg AEDP): 7.51 % Dose/1% Body weight
% Dose/1% Body weight: Femur (0.1 mg/kg AEDP): 7.93 % Dose/1% Body weight
% Dose/1% Body weight: Kidneys (0.1 mg/kg AEDP): 1.28 % Dose/1% Body weight
% Dose/1% Body weight: Liver (0.1 mg/kg AEDP): 0.083 % Dose/1% Body weight
% Dose/1% Body weight: Marrow (0.1 mg/kg AEDP): 0.096 % Dose/1% Body weight
% Dose/1% Body weight: Muscle (0.1 mg/kg AEDP): 0.034 % Dose/1% Body weight
% Dose/1% Body weight: Pelvis (0.1 mg/kg AEDP): 6.24 % Dose/1% Body weight
% Dose/1% Body weight: Spine (0.1 mg/kg AEDP): 7.36 % Dose/1% Body weight
% Dose/1% Body weight: Tibia (0.1 mg/kg AEDP): 8.50 % Dose/1% Body weight
% Dose: Urine (0.1 mg/kg AEDP): 38.8 % Dose
Ratio of 99mTc complex/85Sr: Ave Bone (0.5 mg/kg): 0.644
Ratio of 99mTc complex/85Sr: Blood (0.5 mg/kg): 0.280
Ratio of 99mTc complex/85Sr: Femur (0.5 mg/kg): 0.628
Ratio of 99mTc complex/85Sr: Kidneys (0.5 mg/kg): 2.47
Ratio of 99mTc complex/85Sr: Liver (0.5 mg/kg): 0.459
Ratio of 99mTc complex/85Sr: Marrow (0.5 mg/kg): 0.500
Ratio of 99mTc complex/85Sr: Muscle (0.5 mg/kg): 0.140
Ratio of 99mTc complex/85Sr: Pelvis (0.5 mg/kg): 0.692
Ratio of 99mTc complex/85Sr: Spine (0.5 mg/kg): 0.614
Ratio of 99mTc complex/85Sr: Tibia (0.5 mg/kg): 0.632
Tc/Sr (last line of distribution table) (0.5 mg/kg): 0.645
% Dose in Whole Organ: Blood (0.5 mg/kg AEDP): 1.38 % Dose
% Dose in Whole Organ: Kidneys (0.5 mg/kg AEDP): 1.11 % Dose
% Dose in Whole Organ: Liver (0.5 mg/kg AEDP): 0.216 % Dose
% Dose in Whole Organ: Marrow (0.5 mg/kg AEDP): 0.23 % Dose
% Dose in Whole Organ: Muscle (0.5 mg/kg AEDP): 0.883 % Dose
% Dose in Whole Organ: W. Femur (0.5 mg/kg AEDP): 1.74 % Dose
% Dose in Whole Organ: W. Tibia (0.5 mg/kg AEDP): 1.55 % Dose
% Dose/1% Body weight: Blood (0.5 mg/kg AEDP): 0.197 % Dose/1% Body weight
% Dose/1% Body weight: Bone Ave (0.5 mg/kg AEDP): 6.96 % Dose/1% Body weight
% Dose/1% Body weight: Femur (0.5 mg/kg AEDP): 6.59 % Dose/1% Body weight
% Dose/1% Body weight: Kidneys (0.5 mg/kg AEDP): 2.11 % Dose/1% Body weight
% Dose/1% Body weight: Liver (0.5 mg/kg AEDP): 0.079 % Dose/1% Body weight
% Dose/1% Body weight: Marrow (0.5 mg/kg AEDP): 0.104 % Dose/1% Body weight
% Dose/1% Body weight: Muscle (0.5 mg/kg AEDP): 0.021 % Dose/1% Body weight
% Dose/1% Body weight: Pelvis (0.5 mg/kg AEDP): 7.93 % Dose/1% Body weight
% Dose/1% Body weight: Spine (0.5 mg/kg AEDP): 6.05 % Dose/1% Body weight
% Dose/1% Body weight: Tibia (0.5 mg/kg AEDP): 7.27 % Dose/1% Body weight
% Dose: Urine (0.5 mg/kg AEDP): 48.85 % Dose
